In general, amount remaining refers to what is left of the initial amount, in per cent. Low values mean a greater loss, high ones greater stability.

In data set [1] the test system is cyclinK. Description: Western blot of cyclinK in HCC1954 cells. The format is cell-based, human. The note with it: 40 and 200 nM (dinaciclib 40 nM), 2 h. The procedure: (§1) The proteins were transferred to nitrocellulose membrane (Gelman Sciences, Ann Arbor, MI, USA) by electroblotting. The membranes were blocked with 5% non-fat dry milk (MB Cell, Seoul, Korea), incubated with primary antibodies for overnight at 4 °C. After the washing steps were performed with TBST solution, the membranes were incubated with HRP-conjugated secondary antibodies for 1 h at rt. After the secondary washing steps using TBST solution, protein bands on the membranes were visualized using enhanced chemiluminescence ECL detection reagent (Biorad Laboratories, Hercules, CA, USA).
Background: Immunoblotting shows a protein as a band on a membrane.

In data set [2] the target is CYP2C9 (Homo sapiens, UniProt P11712). Description: CYP inhibition. The class given is in vitro ADME. On the procedure:
Table 6 In vitro liver metabolic stability and activity against CYPs of potent analogues. | column: CYP % Activity at 10 μM / 2C9

For data set [3], the system named is IRS1. Put plainly: Western blot of IRS1 in SK-Br3 cells. The format is cell-based, human. The note with it: 40 and 200 nM, 24 h. An excerpt: (§2) For Western blot analysis, the following antibodies were used: anti-Pol II CTD (2629S, Cell Signaling Technology, Danvers, MA, USA), anti-Pol II p-CTD (Ser2) (13499S, Cell Signaling Technology), anti-cyclinK (A301-939A-M, Bethyl Laboratories), anti-IRS1 (3407S, Cell Signaling Technology), anti-WNT1 (SC-514531, Santa Cruz Biotechnology, Dallas, TX, USA), anti-β-actin (MAB1501R, Millipore, Burlington, MA, USA), and horseradish peroxidase (HRP)-conjugated secondary antibodies (anti-mouse GTX213112-01; anti-rabbit GTX213110-01) (Genetex, Irvine, CA, USA).
(§3) Cells were lysed with lysis buffer containing 50 mM Tris pH 7.4, 150 mM NaCl, 1 mM EDTA, 1% NP-40, and 0.25% sodium deoxycholate supplemented with protease-inhibitor and phosphatase-inhibitor cocktails. The lysate samples (25 μg/lane) were loaded onto 6–12% sodium dodecyl sulfate polyacrylamide gel and separated by electrophoresis (SDS-PAGE). The proteins were transferred to nitrocellulose membrane (Gelman Sciences, Ann Arbor, MI, USA) by electroblotting. The membranes were blocked with 5% non-fat dry milk (MB Cell, Seoul, Korea), incubated with primary antibodies for overnight at 4 °C. After the washing steps were performed with TBST solution, the membranes were incubated with HRP-conjugated secondary antibodies for 1 h at rt. […]

In data set [4] the target is CYP3A4 (Homo sapiens, UniProt P08684). Put plainly: CYP inhibition. The format is in vitro ADME. On the procedure: Table 6 In vitro liver metabolic stability and activity against CYPs of potent analogues. | column: CYP % Activity at 10 μM / 3A4
Data set [5] in a line: In vitro liver microsomal stability. The format is in vitro ADME. The note with it: liver microsomes, pH 7.4, 30 m at 37 °C with NADPH regeneration system. On the procedure: Each compound (final 1 μM, duplicated) was added to each 0.1 M PBS solution (pH 7.4) containing liver microsome of three different species (human, dog, mouse). After a brief (5 m) incubation at 37 °C, the NADPH regeneration system (Promega Corp., Madison, WI, USA) was added, then the mixture was incubated at 37 °C for 30 m. The reaction was terminated by adding acetonitrile containing an internal standard (chlorpropamide), then the mixture was centrifuged at 15,000 rpm, 4 °C for 5 m. The supernatant solution was injected to LC/MS/MS system (TSQ Vantage Triple-Stage Quadrupole Mass Spectrometer, ThermoFisher Scientific, Waltham, MA, USA). The remaining substrates were analyzed with Xcalibur 4.4 s/w using an MRM (multiple reaction monitoring) quantitation mode.
On the technique in general: Liver microsomes are vesicles of endoplasmic reticulum, rich in cytochrome P450 enzymes.

For data set [6], the system named is cyclinK. Put plainly: Western blot of cyclinK in SK-Br3 cells. The format is cell-based, human. The note with it: 2 h. On the procedure: as §1
The subject of data set [7] is Pol II p-CTD (Ser2). Description: Western blot of Pol II p-CTD (Ser2) in HCC1954 cells. The class given is cell-based, human. The note with it: 40 and 200 nM (dinaciclib 40 nM), 2 h.
Text: as §2
(§4) Cells were lysed with lysis buffer containing 50 mM Tris pH 7.4, 150 mM NaCl, 1 mM EDTA, 1% NP-40, and 0.25% sodium deoxycholate supplemented with protease-inhibitor and phosphatase-inhibitor cocktails. The lysate samples (25 μg/lane) were loaded onto 6–12% sodium dodecyl sulfate polyacrylamide gel and separated by electrophoresis (SDS-PAGE). The proteins were transferred to nitrocellulose membrane (Gelman Sciences, Ann Arbor, MI, USA) by electroblotting. The membranes were blocked with 5% non-fat dry milk (MB Cell, Seoul, Korea), incubated with primary antibodies for overnight at 4 °C. After the washing steps were performed with TBST solution, the membranes were incubated with HRP-conjugated secondary antibodies for 1 h at rt. After the secondary washing steps using TBST solution, protein bands on the membranes were visualized using enhanced chemiluminescence ECL detection reagent (Biorad Laboratories, Hercules, CA, USA).

The test system of data set [8] is SK-Br3 cells. Description: Antiproliferation assay (Cell-titer Glo, 72 h). The class given is cell-based. The note with it: Homo sapiens, SK-BR-3. The gist of the method:
(§5)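 Cells in RPMI/10% FBS were seeded at 5000 (SK-Br3) or 1000 (HCC-1954) per well and allowed 24 h to settle. Compounds were pin-transferred as 3-fold, 10-point duplicate series from a 10 mM stock and incubated 72 h at 37 °C. Viability was read by CellTiter-Glo luminescence and IC50 obtained by curve fitting.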

Data set [9] concerns HCC1954 cells. Put plainly: Antiproliferation assay (Cell-titer Glo, 72 h). The note with it: Homo sapiens. The format is cell-based. The gist of the method: as §5
Data set [10] has as its system Pol II p-CTD (Ser2). Put plainly: Western blot of Pol II p-CTD (Ser2) in SK-Br3 cells. The class given is cell-based, human. The note with it: 2 h.
Text: as §2, §4

The target in data set [11] is CDK12/CyclinK (Homo sapiens, UniProt Q9NYV4). Description: In vitro CDK12/cyclinK kinase assay. Details: purchased Reaction Biology Corp. (CRO that ran the assay). The note with it: Table 5; means and standard deviations from three independent assays; read-out: CDK12/CyclinK (IC50/μM). The class given is biochemical. The procedure: In vitro CDK12/cyclinK assays for all compounds and in vitro kinome-wide inhibition profiling of 30d at 10 μM were performed by a CRO company (Reaction Biology Corp., San Diego, CA, USA).

Data set [12] deals with WNT1. Put plainly: Western blot of WNT1 in HCC1954 cells. The format is cell-based, human. The note with it: 40 and 200 nM, 24 h.
Text: as §2, §3

Data set [13] deals with IRS1. Put plainly: Western blot of IRS1 in HCC1954 cells. The class given is cell-based, human. The note with it: 40 and 200 nM, 24 h.
Text: as §2, §3

The subject of data set [14] is WNT1. Description: Western blot of WNT1 in SK-Br3 cells. The format is cell-based, human. The note with it: 40 and 200 nM, 24 h.
Text: as §2, §3

Where [15] appears, read: SK-Br3 cells, 40 and 200 nM (dinaciclib 40 nM).
The mark [16] stands for this setting: 72 h, means and standard deviations from three independent assays, read-out: SK-Br3 (GI50/μM).
Setting [17] is: 72 h, means and standard deviations from three independent assays, read-out: HCC1954 (GI50/μM).

SMILES strings stand for the structures. Like-named read-outs stand apart in the source and are kept apart here.

Sequence of CYP3A4 (P08684 whole entry): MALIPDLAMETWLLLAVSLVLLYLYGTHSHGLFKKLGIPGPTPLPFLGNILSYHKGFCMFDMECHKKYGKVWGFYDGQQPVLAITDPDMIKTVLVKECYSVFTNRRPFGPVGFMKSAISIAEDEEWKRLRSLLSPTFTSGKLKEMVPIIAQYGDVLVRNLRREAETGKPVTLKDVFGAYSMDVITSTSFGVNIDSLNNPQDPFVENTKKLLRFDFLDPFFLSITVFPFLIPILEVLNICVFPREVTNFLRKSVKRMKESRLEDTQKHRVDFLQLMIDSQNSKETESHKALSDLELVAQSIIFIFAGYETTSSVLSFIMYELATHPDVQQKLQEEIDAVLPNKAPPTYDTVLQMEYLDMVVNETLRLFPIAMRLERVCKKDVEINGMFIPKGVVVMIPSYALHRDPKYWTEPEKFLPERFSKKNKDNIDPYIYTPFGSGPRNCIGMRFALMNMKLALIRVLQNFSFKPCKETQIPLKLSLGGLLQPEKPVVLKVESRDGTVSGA
Sequence of CDK12/CyclinK (Q9NYV4 whole entry): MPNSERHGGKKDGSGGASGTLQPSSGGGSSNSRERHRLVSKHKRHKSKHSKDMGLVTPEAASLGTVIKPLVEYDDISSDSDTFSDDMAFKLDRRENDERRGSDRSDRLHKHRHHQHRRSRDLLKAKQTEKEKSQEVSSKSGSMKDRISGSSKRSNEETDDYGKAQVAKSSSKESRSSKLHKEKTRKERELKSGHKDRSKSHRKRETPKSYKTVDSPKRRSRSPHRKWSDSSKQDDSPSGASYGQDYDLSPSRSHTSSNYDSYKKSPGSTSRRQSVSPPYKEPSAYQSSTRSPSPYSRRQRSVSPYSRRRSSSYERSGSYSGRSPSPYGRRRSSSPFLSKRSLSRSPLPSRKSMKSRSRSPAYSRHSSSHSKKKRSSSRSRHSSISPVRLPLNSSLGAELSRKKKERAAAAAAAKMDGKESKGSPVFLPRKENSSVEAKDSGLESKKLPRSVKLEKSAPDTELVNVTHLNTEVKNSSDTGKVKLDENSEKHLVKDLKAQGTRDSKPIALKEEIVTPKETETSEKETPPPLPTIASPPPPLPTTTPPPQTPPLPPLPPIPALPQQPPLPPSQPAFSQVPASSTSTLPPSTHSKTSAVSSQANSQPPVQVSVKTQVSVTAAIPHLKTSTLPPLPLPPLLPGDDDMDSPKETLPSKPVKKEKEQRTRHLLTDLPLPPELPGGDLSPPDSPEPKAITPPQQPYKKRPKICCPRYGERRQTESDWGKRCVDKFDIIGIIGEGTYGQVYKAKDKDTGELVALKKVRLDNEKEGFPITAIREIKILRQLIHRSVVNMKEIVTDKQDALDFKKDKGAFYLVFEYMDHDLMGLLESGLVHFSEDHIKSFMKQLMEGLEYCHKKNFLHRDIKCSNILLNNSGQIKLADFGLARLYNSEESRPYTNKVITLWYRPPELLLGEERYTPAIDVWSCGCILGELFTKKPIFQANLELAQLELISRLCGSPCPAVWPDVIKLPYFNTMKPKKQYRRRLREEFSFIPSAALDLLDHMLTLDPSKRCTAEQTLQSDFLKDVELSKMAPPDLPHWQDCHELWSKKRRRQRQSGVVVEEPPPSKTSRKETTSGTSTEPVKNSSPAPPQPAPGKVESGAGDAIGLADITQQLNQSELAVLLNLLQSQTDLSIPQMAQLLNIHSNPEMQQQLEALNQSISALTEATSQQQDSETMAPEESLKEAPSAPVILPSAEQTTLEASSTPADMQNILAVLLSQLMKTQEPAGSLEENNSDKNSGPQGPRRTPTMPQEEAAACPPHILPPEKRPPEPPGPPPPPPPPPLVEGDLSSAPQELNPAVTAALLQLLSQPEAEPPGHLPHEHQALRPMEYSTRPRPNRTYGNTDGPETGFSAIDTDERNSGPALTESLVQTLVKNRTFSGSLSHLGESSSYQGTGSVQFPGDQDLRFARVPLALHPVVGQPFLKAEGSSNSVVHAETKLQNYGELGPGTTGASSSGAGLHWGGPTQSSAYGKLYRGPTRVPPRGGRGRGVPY
Sequence of CDK12/CyclinK (O75909 whole entry partner): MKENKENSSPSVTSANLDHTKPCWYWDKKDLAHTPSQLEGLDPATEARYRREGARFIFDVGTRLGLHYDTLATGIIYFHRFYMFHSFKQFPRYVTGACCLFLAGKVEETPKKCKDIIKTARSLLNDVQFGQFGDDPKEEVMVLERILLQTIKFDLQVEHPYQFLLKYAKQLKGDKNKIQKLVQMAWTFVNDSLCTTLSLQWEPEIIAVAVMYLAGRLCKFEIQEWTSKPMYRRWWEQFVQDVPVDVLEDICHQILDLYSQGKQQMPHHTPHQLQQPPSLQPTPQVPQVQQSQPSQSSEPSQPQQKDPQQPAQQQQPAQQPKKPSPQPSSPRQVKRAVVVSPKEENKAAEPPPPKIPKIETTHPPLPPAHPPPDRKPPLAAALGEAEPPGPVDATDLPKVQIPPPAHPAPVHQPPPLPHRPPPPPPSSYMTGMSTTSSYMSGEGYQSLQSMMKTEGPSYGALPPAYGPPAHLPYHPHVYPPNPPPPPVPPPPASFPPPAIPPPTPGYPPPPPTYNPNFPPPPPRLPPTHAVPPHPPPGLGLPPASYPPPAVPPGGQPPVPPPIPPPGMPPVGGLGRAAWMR
Sequence of CYP2C9 (P11712 whole entry): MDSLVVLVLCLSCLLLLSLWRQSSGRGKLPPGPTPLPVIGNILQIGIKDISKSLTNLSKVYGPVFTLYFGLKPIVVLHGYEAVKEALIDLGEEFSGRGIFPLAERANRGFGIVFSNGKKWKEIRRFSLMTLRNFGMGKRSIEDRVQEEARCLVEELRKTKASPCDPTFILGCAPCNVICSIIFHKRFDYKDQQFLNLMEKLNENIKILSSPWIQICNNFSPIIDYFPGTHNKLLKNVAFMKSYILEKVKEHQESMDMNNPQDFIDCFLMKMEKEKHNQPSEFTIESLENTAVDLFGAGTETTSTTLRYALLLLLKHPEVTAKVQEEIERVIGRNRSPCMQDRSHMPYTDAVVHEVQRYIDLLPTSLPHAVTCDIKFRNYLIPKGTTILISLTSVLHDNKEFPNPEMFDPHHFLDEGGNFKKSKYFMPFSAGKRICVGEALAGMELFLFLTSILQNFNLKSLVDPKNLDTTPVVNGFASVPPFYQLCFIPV

For the compound `CCn1cnc2c(NCc3ccc(-c4ccccn4)nc3)nc(-c3cnc(N)nc3)nc21` [Compound 30e, N-([2,2′-Bipyridin]-5-ylmethyl)-2-(2-aminopyrimidin-5-yl)-9-ethyl-9H-purin-6-amine], the “cyclinK level (Western blot)” value in [1] and in [6] (setting [15]) was “greatly downregulated in a dose-dependent manner” throughout. In data set [2], the “CYP % Activity at 10 μM 2C9” value is listed as 81.6%. Moreover, the “IRS1 expression level (Western blot)” value in [3] is “strong suppression of IRS1 and WNT1”; in data set [13], “strong suppression of IRS1 and WNT1”. Also, in [4], the “CYP % Activity at 10 μM 3A4” value turned out to be 92.8%. For the same compound, the fraction remaining at 30 min, 1 μM came to 67.6% in data set [5] (dog), 100% in data set [5] (human) and 85% in data set [5] (mouse). Moreover, the “PolII p-CTD (Ser2) level (Western blot)” value is “strong, dose-dependent suppression” in [7] and “strong, dose-dependent suppression” in data set [10] (setting [15]). Besides, the GI50 in data set [8] (setting [16]) is 0.052 ± 0.003 µM; in [8] (read-out: SK-Br3 GI50), 0.046 to 0.052 µM; in data set [9] (setting [17]), 0.034 ± 0.002 µM; in data set [9] (read-out: HCC1954 GI50), 0.034 to 0.036 µM. Besides, the IC50 in data set [11] was determined as 0.085 ± 0.011 µM. The “WNT1 expression level (Western blot)” value in data set [12] is “strong suppression of IRS1 and WNT1”; in data set [14] it was “strong suppression of IRS1 and WNT1”.

For `CCn1cnc2c(NCc3ccc(-c4ccccn4)nc3)nc(-c3ccc(N)nc3)nc21` [Compound 30d, N-([2,2′-Bipyridin]-5-ylmethyl)-2-(6-aminopyridin-3-yl)-9-ethyl-9H-purin-6-amine], the “cyclinK level (Western blot)” value in [1] and in data set [6] (setting [15]) was “greatly downregulated in a dose-dependent manner” each time. In [2], the “CYP % Activity at 10 μM 2C9” value stood at 57.9%. Further, the “IRS1 expression level (Western blot)” value in data set [3] is “strong suppression of IRS1 and WNT1”; in data set [13], “strong suppression of IRS1 and WNT1”. For the same compound, the “CYP % Activity at 10 μM 3A4” value in [4] is listed as 43.0%. Moreover, the results for the fraction remaining at 30 min, 1 μM in [5] (dog), in data set [5] (human) and in [5] (mouse) were 46.2%, 64.8% and 49.9%, respectively. Moreover, the “PolII p-CTD (Ser2) level (Western blot)” value in data set [7] is “strong, dose-dependent suppression”; in data set [10] (setting [15]), “strong, dose-dependent suppression”. For the same compound, the GI50 in data set [8] (setting [16]) was 0.046 ± 0.007 µM; in [8] (read-out: SK-Br3 GI50) it was 0.046 to 0.052 µM; in data set [9] (setting [17]), 0.036 ± 0.005 µM; in [9] (read-out: HCC1954 GI50) it was 0.034 to 0.036 µM. The IC50 in data set [11] amounted to 0.021 ± 0.007 µM. Moreover, the “WNT1 expression level (Western blot)” value in data set [12] was “strong suppression of IRS1 and WNT1”; in data set [14], “strong suppression of IRS1 and WNT1”.

For `CCc1cnn2c(NCc3ccc[n+]([O-])c3)cc(N3CCCC[C@H]3CCO)nc12` [Dinaciclib], the “cyclinK level (Western blot)” value in [1] is “only a marginal downregulation of cyclinK”; in data set [6] (SK-Br3 cells, 0.2, 1 μM) it was “marginal activity in downrgulating cyclinK”; in data set [6] (setting [15]), “only a marginal downregulation of cyclinK”. Moreover, the “PolII p-CTD (Ser2) level (Western blot)” value in data set [7] is “more potent inhibition of PolII CTD phosphorylation”; in data set [10] (SK-Br3 cells, 0.2, 1 μM), “strongly suppressed PolII p-CTD”; in data set [10] (setting [15]) it was “more potent inhibition of PolII CTD phosphorylation”. Besides, the GI50 in [8] (setting [16]) and in data set [9] (setting [17]) was 0.012 ± 0.001 µM in each case.

Values taken from article PMC9506414, “Novel 2,6,9-Trisubstituted Purines as Potent CDK Inhibitors Alleviating Trastuzumab-Resistance of HER2-Positive Breast Cancers” (Pharmaceuticals, 2022).
